From patent US20050287195A1, “Transdermal drug delivery systems” (priority 1998, published 2005)

Test: In vitro skin permeation with human skin, Franz-type diffusion cells
Type: in vitro ADME
Details: solvent/skin penetration enhancer DEET and/or Crotamiton, concentration below saturation, receptor at 32° C.
Procedure: Dermatomed human skin sections were mounted onto the Franz cells and transdermal drug delivery systems mounted on tape backings (1.5 cm^2) were placed on the stratum corneal surface of the skin. Each Franz cell contained 7 ml of ethanol phosphate buffered saline as the receptor medium, maintained at 32° C. At predetermined time intervals 0.7 ml of the receptor solution was sampled and an equal amount replaced. The samples were analysed by High Pressure Liquid Chromatography.

| skin mass transport | SMILES |
| --- | --- |
| enhanced | C[C@]12CC[C@@H]3c4ccc(O)cc4CC[C@H]3[C@@H]1CC[C@@H]2O [Estradiol] |
| enhanced | C#C[C@]1(OC(C)=O)CC[C@H]2[C@@H]3CCC4=CC(=O)CC[C@@H]4[C@H]3CC[C@@]21C [Norethisterone Acetate] |
